Experimental data: patent publication US20080234233A1, “MEDICAMENT FOR TREATMENT OF NEURODEGENERATIVE DISEASES” (INSTITUTE OF MEDICINAL MOLECULAR DESIGN INC., priority 2002, published 2008)

What follows are compounds tested on NF-κ B activation (assay: Inhibitory activity of NF-κB activation, luciferase reporter assay under TNF-α stimulation in HepG2). Conditions: Drug concentration at 1 μg/mL; HepG2, TNF-α 40 ng/ml, 4 hours.
Type: cell-based, human
Experimental: Measurement of Inhibitory Activity of NF-κB activation
Using a transfection reagent (Effectene; QIAGEN), the human hepatoma cell strain HepG2 was transfected with a plasmid (pNF κ B-Luc Reporter Plasmid; […]) integrated with an oligonucleotide having five tandem copies of NF-κ B binding sequences([…]) on a upstream region of firefly luciferase gene(Luc) according to the QIAGEN's protocol, and the cells were incubated for 6 to 24 hours. After addition of TNF-α (40 ng/ml) in the presence or absence of a test compound, the cells were incubated for 4 hours, and intracellular luciferase activity was measured by using PicaGene LT (TOYO INK MFG Co., Ltd.) and a chemical luminescence measurement apparatus ([…]luor Plus; TECAN). The inhibitory ratio was measured as a ratio relative to the value of the luciferase activity in the absence of the test compound.

| Structure (SMILES) | Inhibitory rate against NF-κB activation (%) |
| --- | --- |
| O=C(Nc1cc(C(F)(F)F)cc(C(F)(F)F)c1)c1cc(N=Nc2ccc([N+](=O)[O-])cc2)ccc1O [compound 48] | 96.2% |
| O=C(Nc1cc(C(F)(F)F)cc(C(F)(F)F)c1)c1cc(N=Nc2ccc(S(=O)(=O)Nc3ccccn3)cc2)ccc1O [compound 49] | 19.4% |
| Cc1ccc(C(=O)Nc2cc(C(F)(F)F)cc(C(F)(F)F)c2)c(O)c1 [compound 53] | 93.3% |
| O=C(Nc1cc(C(F)(F)F)cc(C(F)(F)F)c1)c1ccc(O)cc1O [compound 55] | 10.8% |
| COc1cccc(C(=O)Nc2cc(C(F)(F)F)cc(C(F)(F)F)c2)c1O [compound 59] | 41.9% |
| CC(C)(C)CC(C)(C)c1ccc(O)c(C(=O)Nc2cc(C(F)(F)F)cc(C(F)(F)F)c2)c1 [compound 60] | 94.0% |
| O=C(Nc1cc(C(F)(F)F)cc(C(F)(F)F)c1)c1c(O)c(Cl)cc(Cl)c1Cl [compound 61] | 95.1% |
| CC(C)(C)c1cc(C(=O)Nc2cc(C(F)(F)F)cc(C(F)(F)F)c2)c(O)c(C(C)(C)C)c1 [compound 62] | 37.0% |
| O=C(Nc1cc(C(F)(F)F)cc(C(F)(F)F)c1)c1cccc(Cl)c1O [compound 64] | 84.9% |
| COc1ccc(C(=O)Nc2cc(C(F)(F)F)cc(C(F)(F)F)c2)c(O)c1 [compound 65] | 83.3% |
| O=C(Nc1cc(C(F)(F)F)cc(C(F)(F)F)c1)c1cc2ccccc2cc1O [compound 72] | 94.6% |
| O=C(Nc1cc(C(F)(F)F)cc(C(F)(F)F)c1)c1nc2ccccc2nc1O [compound 80] | 46.3% |
| CC(=O)Oc1ccc(Cl)cc1C(=O)Nc1cc(C(F)(F)F)ccc1C(F)(F)F [compound 82] | 94.0% |
| O=C(Nc1cc(C(F)(F)F)ccc1C(F)(F)F)c1cc(Br)ccc1O [compound 83] | 95.7% |
| Cc1ccc(O)c(C(=O)Nc2cc(C(F)(F)F)ccc2C(F)(F)F)c1 [compound 84] | 92.6% |
| O=C(Nc1cc(F)cc(C(F)(F)F)c1)c1cc(Cl)ccc1O [compound 85] | 94.7% |
| O=C(Nc1cc(Br)cc(C(F)(F)F)c1)c1cc(Br)ccc1O [compound 86] | 96.7% |
| O=C(Nc1cc(C(F)(F)F)ccc1F)c1cc(Cl)ccc1O [compound 87] | 93.1% |

| Structure (SMILES) | Inhibitory rate against NF-κB activation (%) |
| --- | --- |
| CC(=O)Oc1ccc(Cl)cc1C(=O)Nc1cc(C(F)(F)F)ccc1Cl [compound 89] | 96.7% |
| O=C(Nc1cc(C(F)(F)F)ccc1Cl)c1cc(Br)ccc1O [compound 90] | 88.9% |
| O=C(Nc1cc(C(F)(F)F)ccc1[N+](=O)[O-])c1cc(Cl)ccc1O [compound 91] | 86.3% |
| Cc1ccc(C(F)(F)F)cc1NC(=O)c1cc(Cl)ccc1O [compound 92] | 93.8% |
| COc1cc(NC(=O)c2cc(Br)ccc2O)cc(C(F)(F)F)c1 [compound 93] | 84.5% |
| COc1ccc(C(F)(F)F)cc1NC(=O)c1cc(Br)ccc1O [compound 94] | 76.6% |
| COc1ccc(C(F)(F)F)cc1NC(=O)c1cc(Cl)ccc1O [compound 95] | 91.8% |
| CSc1ccc(C(F)(F)F)cc1NC(=O)c1cc(Cl)ccc1O [compound 96] | 94.6% |
| O=C(Nc1cc(C(F)(F)F)ccc1N1CCCC1)c1cc(Br)ccc1O [compound 97] | 95.8% |
| O=C(Nc1cc(C(F)(F)F)ccc1Cl)c1cc([N+](=O)[O-])ccc1O [compound 99] | 54.3% |
| Cc1ccc(O)c(C(=O)Nc2cc(C(F)(F)F)ccc2Cl)c1 [compound 100] | 85.6% |
| Cc1ccc(O)c(C(=O)Nc2cc(C(F)(F)F)ccc2C)c1 [compound 102] | 89.3% |
| O=C(Nc1cc(Br)cc(C(F)(F)F)c1)c1cc(Cl)ccc1O [compound 104] | 97.2% |
| COc1cc(NC(=O)c2cc(Cl)ccc2O)cc(C(F)(F)F)c1 [compound 105] | 94.6% |
| O=C(Nc1cc(C(F)(F)F)ccc1N1CCOCC1)c1cc(Cl)ccc1O [compound 106] | 92.3% |
| O=C(Nc1cc(C(F)(F)F)ccc1Br)c1cc(Cl)ccc1O [compound 107] | 94.9% |
| O=C(Nc1cc(C(F)(F)F)ccc1Oc1ccc2ccccc2c1)c1cc(Cl)ccc1O [compound 110] | 96.5% |
| O=C(Nc1cc(C(F)(F)F)ccc1Oc1ccc(Cl)cc1Cl)c1cc(Cl)ccc1O [compound 111] | 96.5% |

Same assay, conditions: Drug concentration at 10 μg/mL; HepG2, TNF-α 40 ng/ml, 4 hours

| Structure (SMILES) | Inhibitory rate against NF-κB activation (%) |
| --- | --- |
| O=C(Nc1cc(C(F)(F)F)cc(C(F)(F)F)c1)c1cc(N=Nc2ccc([N+](=O)[O-])cc2)ccc1O [compound 48] | 98.7% |
| O=C(Nc1cc(C(F)(F)F)cc(C(F)(F)F)c1)c1cc(N=Nc2ccc(S(=O)(=O)Nc3ccccn3)cc2)ccc1O [compound 49] | 89.1% |
| Cc1ccc(C(=O)Nc2cc(C(F)(F)F)cc(C(F)(F)F)c2)c(O)c1 [compound 53] | 94.5% |
| O=C(Nc1cc(C(F)(F)F)cc(C(F)(F)F)c1)c1cc(Br)c(O)cc1O [compound 54] | 86.5% |
| O=C(Nc1cc(C(F)(F)F)cc(C(F)(F)F)c1)c1ccc(O)cc1O [compound 55] | 88.6% |
| O=C(Nc1cc(C(F)(F)F)cc(C(F)(F)F)c1)c1cccc(O)c1O [compound 57] | 91.9% |
| COc1cccc(C(=O)Nc2cc(C(F)(F)F)cc(C(F)(F)F)c2)c1O [compound 59] | 94.7% |
| CC(C)(C)CC(C)(C)c1ccc(O)c(C(=O)Nc2cc(C(F)(F)F)cc(C(F)(F)F)c2)c1 [compound 60] | 99.1% |
| O=C(Nc1cc(C(F)(F)F)cc(C(F)(F)F)c1)c1c(O)c(Cl)cc(Cl)c1Cl [compound 61] | 97.2% |
| CC(C)(C)c1cc(C(=O)Nc2cc(C(F)(F)F)cc(C(F)(F)F)c2)c(O)c(C(C)(C)C)c1 [compound 62] | 86.9% |
| O=C(Nc1cc(C(F)(F)F)cc(C(F)(F)F)c1)c1cccc(Cl)c1O [compound 64] | 94.1% |
| COc1ccc(C(=O)Nc2cc(C(F)(F)F)cc(C(F)(F)F)c2)c(O)c1 [compound 65] | 89.8% |
| O=C(Nc1cc(C(F)(F)F)cc(C(F)(F)F)c1)c1cc2ccccc2cc1O [compound 72] | 95.0% |
| O=C(Nc1cc(C(F)(F)F)cc(C(F)(F)F)c1)c1nc2ccccc2nc1O [compound 80] | 73.0% |
| CC(=O)Oc1ccc(Cl)cc1C(=O)Nc1cc(C(F)(F)F)ccc1C(F)(F)F [compound 82] | 96.8% |
| O=C(Nc1cc(C(F)(F)F)ccc1C(F)(F)F)c1cc(Br)ccc1O [compound 83] | 98.3% |
| Cc1ccc(O)c(C(=O)Nc2cc(C(F)(F)F)ccc2C(F)(F)F)c1 [compound 84] | 96.6% |
| O=C(Nc1cc(F)cc(C(F)(F)F)c1)c1cc(Cl)ccc1O [compound 85] | 98.9% |
| O=C(Nc1cc(Br)cc(C(F)(F)F)c1)c1cc(Br)ccc1O [compound 86] | 98.7% |

| Structure (SMILES) | Inhibitory rate against NF-κB activation (%) |
| --- | --- |
| O=C(Nc1cc(C(F)(F)F)ccc1F)c1cc(Cl)ccc1O [compound 87] | 95.9% |
| CC(=O)Oc1ccc(Cl)cc1C(=O)Nc1cc(C(F)(F)F)ccc1Cl [compound 89] | 97.4% |
| O=C(Nc1cc(C(F)(F)F)ccc1Cl)c1cc(Br)ccc1O [compound 90] | 94.1% |
| O=C(Nc1cc(C(F)(F)F)ccc1[N+](=O)[O-])c1cc(Cl)ccc1O [compound 91] | 96.7% |
| Cc1ccc(C(F)(F)F)cc1NC(=O)c1cc(Cl)ccc1O [compound 92] | 97.9% |
| COc1cc(NC(=O)c2cc(Br)ccc2O)cc(C(F)(F)F)c1 [compound 93] | 97.2% |
| COc1ccc(C(F)(F)F)cc1NC(=O)c1cc(Br)ccc1O [compound 94] | 93.4% |
| COc1ccc(C(F)(F)F)cc1NC(=O)c1cc(Cl)ccc1O [compound 95] | 98.5% |
| CSc1ccc(C(F)(F)F)cc1NC(=O)c1cc(Cl)ccc1O [compound 96] | 99.1% |
| O=C(Nc1cc(C(F)(F)F)ccc1N1CCCC1)c1cc(Br)ccc1O [compound 97] | 97.8% |
| O=C(Nc1cc(C(F)(F)F)ccc1Cl)c1cc([N+](=O)[O-])ccc1O [compound 99] | 98.0% |
| Cc1ccc(O)c(C(=O)Nc2cc(C(F)(F)F)ccc2Cl)c1 [compound 100] | 95.1% |
| Cc1ccc(O)c(C(=O)Nc2cc(C(F)(F)F)ccc2C)c1 [compound 102] | 98.3% |
| O=C(Nc1cc(Br)cc(C(F)(F)F)c1)c1cc(Cl)ccc1O [compound 104] | 99.2% |
| COc1cc(NC(=O)c2cc(Cl)ccc2O)cc(C(F)(F)F)c1 [compound 105] | 97.5% |
| O=C(Nc1cc(C(F)(F)F)ccc1N1CCOCC1)c1cc(Cl)ccc1O [compound 106] | 92.1% |
| O=C(Nc1cc(C(F)(F)F)ccc1Br)c1cc(Cl)ccc1O [compound 107] | 96.2% |
| O=C(Nc1cc(C(F)(F)F)ccc1Oc1ccc2ccccc2c1)c1cc(Cl)ccc1O [compound 110] | 98.7% |
| O=C(Nc1cc(C(F)(F)F)ccc1Oc1ccc(Cl)cc1Cl)c1cc(Cl)ccc1O [compound 111] | 99.7% |

Same assay, conditions: Homo sapiens; Drug concentration at 1 μg/mL; HepG2, TNF-α 40 ng/ml, 4 hours; read-out: Inhibitory rate against NF-κB activation (%)

| Structure (SMILES) | inhibition at 1 µg/mL |
| --- | --- |
| Cc1cccc(C(=O)Nc2cc(C(F)(F)F)cc(C(F)(F)F)c2)c1O [compound 58, N-[3,5-bis(trifluoromethyl)phenyl]-2-hydroxy-3-methylbenzamide] | 88.2% |
| O=C(Nc1cc(C(F)(F)F)cc(C(F)(F)F)c1)c1scc(Br)c1O [compound 74, 4-Bromo-3-hydroxy-N-[3,5-bis(trifluoromethyl)phenyl]thiophene-2-carboxamide] | 64% |
| O=C(Nc1cc(C(F)(F)F)ccc1C(F)(F)F)c1cc(Cl)ccc1O [compound 81, N-[2,5-bis(trifluoromethyl)phenyl]-5-chloro-2-hydroxybenzamide] | 95% |
| O=C(Nc1cc(C(F)(F)F)ccc1Cl)c1cc(Cl)ccc1O [compound 88, 5-chloro-N-[2-chloro-5-(trifluoromethyl)phenyl]-2-hydroxybenzamide] | 94.8% |
| COC(=O)c1cc(NC(=O)c2cc(Cl)ccc2O)cc(C(F)(F)F)c1 [compound 108, 5-chloro-2-hydroxy-N-[3-methoxycarbonyl-5-(trifluoromethyl)phenyl]benzamide] | 41.5% |

Same assay, conditions: Homo sapiens; Drug concentration at 10 μg/mL; HepG2, TNF-α 40 ng/ml, 4 hours; read-out: Inhibitory rate against NF-κB activation (%)

| Structure (SMILES) | inhibition at 10 µg/mL |
| --- | --- |
| Cc1cccc(C(=O)Nc2cc(C(F)(F)F)cc(C(F)(F)F)c2)c1O [compound 58, N-[3,5-bis(trifluoromethyl)phenyl]-2-hydroxy-3-methylbenzamide] | 95% |
| O=C(Nc1cc(C(F)(F)F)cc(C(F)(F)F)c1)c1scc(Br)c1O [compound 74, 4-Bromo-3-hydroxy-N-[3,5-bis(trifluoromethyl)phenyl]thiophene-2-carboxamide] | 97.5% |
| O=C(Nc1cc(C(F)(F)F)ccc1C(F)(F)F)c1cc(Cl)ccc1O [compound 81, N-[2,5-bis(trifluoromethyl)phenyl]-5-chloro-2-hydroxybenzamide] | 96.3% |
| O=C(Nc1cc(C(F)(F)F)ccc1Cl)c1cc(Cl)ccc1O [compound 88, 5-chloro-N-[2-chloro-5-(trifluoromethyl)phenyl]-2-hydroxybenzamide] | 97.1% |
| COC(=O)c1cc(NC(=O)c2cc(Cl)ccc2O)cc(C(F)(F)F)c1 [compound 108, 5-chloro-2-hydroxy-N-[3-methoxycarbonyl-5-(trifluoromethyl)phenyl]benzamide] | 88.4% |
